# In patent US20250090498A1, “TREATMENT OF PRIMARY CTLA-4 CHECKPOINT RELATED IMMUNODEFICIENCIES” (ADIENNE PHARMA & BIOTECH SA, priority 2023, published 2025):
# Tests used:
# [1] = test system: disease progression in IL-10-deficient mice; assay: disease progression in 16 wk-old IL-10-deficient mice, 3-IAld for 4 weeks then 1% DSS; assay type: in vivo, Il10−/− mice; conditions: 3-IAld every other day for 4 weeks
# Protocol: Sixteen week-old IL-10-deficient mice (Il10^−/−) were treated with 3-IAld every other day for 4 weeks, as illustrated in FIG. 10A. As a mimic of disease exacerbation, mice received 1% DSS after 3-IAld treatment and subsequently evaluated for weight change, intestinal pathology and epithelial integrity.
# immune-mediated colitis = immune-mediated colitis in NSG mice infused with hPBMCs and treated with anti-CTLA-4 mAb; assay type: in vivo
# Protocol: Humanized immunodeficient NSG mice were injected with human peripheral blood mononuclear cells from healthy donors and treated with anti-CTLA-4 monoclonal antibody. NOD.Cg-Prkdcscid Il2rgtm1Wjl/SzJ (NSG) mice, 8-10 weeks old, were injected intraperitoneally with human peripheral blood mononuclear cells (107) freshly isolated from healthy donors and treated intraperitoneally with 100 μg of anti-CTLA-4 mAb or human IgG as antibody control at days 0, 4, 8, 12 and 16.
# 3-IAld (18 mg/kg) was administered intragastrically every other day starting the day of cell infusion. Mice were monitored daily for overall mortality and body weight loss and sacrificed on day 21.
# [2] = 3-IAld 18 mg/kg intragastrically every other day, 21 days
smiles,measurement,setting,value
"O=Cc1c[nH]c2ccccc12 [3-IAld, 1H-indole-3-carbaldehyde]",colon inflammatory histopathology,[1],slow down
same,disease progression (overall),[1],slows disease progression
same,loss of body weight,[1],slow down
same,epithelial integrity and renewal,[1]; PAS and Ki-67,maintain
same,immune-mediated colitis (overall),immune-mediated colitis; 3-IAld 18 mg/kg,protects mice from immune-mediated colitis
same,survival,immune-mediated colitis; [2],increased
same,weight loss,immune-mediated colitis; [2],reduced
same,histology score,"immune-mediated colitis; 3-IAld 18 mg/kg, colon, day 21",improved
same,inflammatory histopathology,"immune-mediated colitis; 3-IAld 18 mg/kg, colon, day 21",improved
same,barrier function (expression of ZO-1),"immune-mediated colitis; 3-IAld 18 mg/kg, day 21",restored
same,inflammatory cytokine gene expression,"immune-mediated colitis; 3-IAld 18 mg/kg, day 21",decreased
